From patent US10947188B2, “Small molecule ferroptosis inducers” (THE TRUSTEES OF COLUMBIA UNIVERSITY IN THE CITY OF NEW YORK, priority 2016, dated 2021)

Columns and labels:
[1] = test system: HT-1080 cells; experiment: Lethality of commercially available CIL41/70 structural analogs; assay type: cell-based; details: Homo sapiens, tested once in technical triplicates
Experimental: 1,000 cells per 36 μl were seeded in each well in 384-well plates. Lethal compounds were dissolved, and a twofold, 12-point dilution series was prepared in DMSO. Compound solutions were further diluted with media at 1:25, and 4 μl per well of the diluted solutions was added to cell cultures immediately after cells were seeded. […] When other cell-death-modulating compounds (100 nM sodium selenite, 1 μM cerivastatin, 100 μg/mL mevalonic acid) were used in cotreatments, they were supplemented to cell culture for 24 h before lethal compounds were added to cell culture, after which cells were further incubated for 24 h at 37° C. under 5% CO2. On the day of the viability measurement, we added 10 μl per well of 50% Alamar Blue diluted in media (Life Technologies) and further incubated the cells at 37° C. for 6 h. Fluorescence intensity (excitation/emission: 530/590) was measured with a Victor 3 plate reader (PerkinElmer), and the normalized viability was calculated as VL=(IL−I0)/(IV−I0), where VL, I0, IV, and IL are the normalized viability and the raw fluorescence intensities from the wells containing media, cells treated with a vehicle (negative control), and cells with the lethal compound (L), respectively. When the effect of a chemical modulator (M) on L was calculated, we instead used the equation VL|M=(IM,L−I0)/(IM,V−I0), where VL|M, IM,L and IM,V are the normalized viability, and fluorescence intensity from cells treated with […], respectively. The viability was typically measured in biological triplicate unless otherwise specified. A representative dose-response curve, the mean and standard error of normalized viability from one replicate were plotted. HT-1080 viability after modulator treatments corresponding to FIG. 3C and FIGS. 5E-5F is available in FIGS. 19A-19C.
Their lethality was tested once in HT-1080 cells in technical triplicates.

[2] = test system: HT-1080; experiment: Modulatory profiling: Alamar Blue viability, lethal compound cotreated with death modulator (EC50, AUC); assay type: cell-based; parameters: AUC, modulator HT.3MA / AUC, modulator HT.ALLN / AUC HT.ATA / AUC HT.ActD / AUC HT.BHA / AUC HT.BHT / AUC HT.BocD / AUC HT.CHX / AUC HT.Co2+ / AUC HT.DPQ / AUC HT.EGTA / AUC HT.Lmim / AUC HT.NAD+ / AUC HT.Nec-1 / AUC HT.SP600125 / AUC HT.TLCK / AUC HT.U0126: unit not given beside the values; details: for AUC HT.ATA: HT-1080, modulator ATA; for AUC HT.ActD: HT-1080, modulator ActD; for AUC HT.BHA: HT-1080, modulator BHA; for AUC HT.BHT: HT-1080, modulator BHT; for AUC HT.BocD: HT-1080, modulator BocD; for AUC HT.CHX: HT-1080, modulator CHX; for AUC HT.Co2+: HT-1080, modulator Co2+; for AUC HT.CspA: HT-1080, modulator CspA; for AUC HT.DPQ: HT-1080, modulator DPQ; for AUC HT.EGTA: HT-1080, modulator EGTA; for AUC HT.Gd3+: HT-1080, modulator Gd3+; for AUC HT.LNAME: HT-1080, modulator LNAME; for AUC HT.Lmim: HT-1080, modulator Lmim; for AUC HT.NAD+: HT-1080, modulator NAD+; for AUC HT.NMMA: HT-1080, modulator NMMA; for AUC HT.Nec-1: HT-1080, modulator Nec-1; for AUC HT.Pepstatin: HT-1080, modulator Pepstatin; for AUC HT.SP600125: HT-1080, modulator SP600125; for AUC HT.TLCK: HT-1080, modulator TLCK; for AUC HT.U0126: HT-1080, modulator U0126; for HT.atoc (AUC) / HT.bCarotene (AUC) / HT.deferox (AUC) / HT.digoxin (AUC) / HT.trolox (AUC) / HT.zVAD (AUC): HT-1080; for HT.atoc (AUC): modulator atoc; for HT.bCarotene (AUC): modulator bCarotene; for HT.deferox (AUC): modulator deferox; for HT.digoxin (AUC): modulator digoxin; for HT.trolox (AUC): modulator trolox; for HT.zVAD (AUC): modulator zVAD; for AUC, modulator HT.3MA / AUC, modulator HT.ALLN: HT-1080 cells, modulatory profile value (AUC); for AUC, modulator HT.3MA: lethal compound cotreated with modulator 3MA; for AUC, modulator HT.ALLN: lethal compound cotreated with modulator ALLN
[3] = test system: BJeLR; experiment: as above; assay type: cell-based, human; parameters: AUC, modulator BJ.Gd3+ / AUC, modulator BJ.LNAME / AUC, modulator BJ.Lmin / AUC, modulator BJ.3MA / AUC, modulator BJ.ALLN / AUC, modulator BJ.Boc D / AUC, modulator BJ.CHX / AUC, modulator BJ.Co2+ / AUC, modulator BJ.Nec-1 / AUC, modulator BJ.Pepstatin / AUC, modulator BJ.TLCK / AUC, modulator BJ.atoc / AUC, modulator BJ.trolox / AUC, modulator BJ.zVAD: unit not given beside the values; details: BJeLR cells, modulatory profile value (AUC); for AUC, modulator BJ.3MA: lethal compound cotreated with modulator 3MA; for AUC, modulator BJ.ALLN: lethal compound cotreated with modulator ALLN; for AUC, modulator BJ.Boc D: lethal compound cotreated with modulator Boc D; for AUC, modulator BJ.CHX: lethal compound cotreated with modulator CHX; for AUC, modulator BJ.Co2+: lethal compound cotreated with modulator Co2+; for AUC, modulator BJ.DPQ: lethal compound cotreated with modulator DPQ; for AUC, modulator BJ.Gd3+: lethal compound cotreated with modulator Gd3+; for AUC, modulator BJ.LNAME: lethal compound cotreated with modulator LNAME; for AUC, modulator BJ.Lmin/NAD+: lethal compound cotreated with modulator Lmin/NAD+; for AUC, modulator BJ.Lmin: lethal compound cotreated with modulator Lmin; for AUC, modulator BJ.NAD+: lethal compound cotreated with modulator NAD+; for AUC, modulator BJ.NMMA: lethal compound cotreated with modulator NMMA; for AUC, modulator BJ.Nec-1: lethal compound cotreated with modulator Nec-1; for AUC, modulator BJ.Pepstatin: lethal compound cotreated with modulator Pepstatin; for AUC, modulator BJ.TLCK: lethal compound cotreated with modulator TLCK; for AUC, modulator BJ.atoc: lethal compound cotreated with modulator atoc; for AUC, modulator BJ.trolox: lethal compound cotreated with modulator trolox; for AUC, modulator BJ.zVAD: lethal compound cotreated with modulator zVAD

## CC(=O)O/N=C(N)/C(=N/OC(C)=O)c1nc2ccccc2[nH]1 [CB19]
[1]
  EC50: > 20 µg/mL

## COC(=O)c1ccc([C@@H]2c3[nH]c4ccccc4c3C[C@@H](C(=O)OC)N2C(=O)CCl)cc1 [RSL3, reference compound]
[2]
  AUC HT.ATA: −0.04539
  AUC HT.ActD: −0.08579
  AUC HT.BHA: 0.3798
  AUC HT.BHT: 0.2444
  AUC HT.BocD: −0.01184
  AUC HT.CHX: −0.05099
  AUC HT.Co2+: −0.1948
  AUC HT.CspA: −0.1268
  AUC HT.DPQ: 0.1653
  AUC HT.EGTA: 0.03696
  AUC HT.Gd3+: −0.01265
  AUC HT.LNAME: −0.01081
  AUC HT.Lmim: 0.3302
  AUC HT.NAD+: 0.007883
  AUC HT.NMMA: −0.00551
  AUC HT.Nec-1: 0.07095
  AUC HT.Pepstatin: −0.01327
  AUC HT.SP600125: −0.1319
  AUC HT.TLCK: 0.3152
  AUC HT.U0126: 0.3972
  HT.atoc (AUC): 0.4471
  HT.bCarotene (AUC): −0.01346
  HT.deferox (AUC): 0.3508
  HT.digoxin (AUC): −0.1463
  HT.trolox (AUC): 0.4213
  HT.zVAD (AUC): −0.01599
  AUC, modulator HT.3MA: −0.07471
  AUC, modulator HT.ALLN: −0.03802
[3]
  AUC, modulator BJ.3MA: 0.09104
  AUC, modulator BJ.ALLN: 0.01266
  AUC, modulator BJ.Boc D: 0.03832
  AUC, modulator BJ.CHX: 0.1841
  AUC, modulator BJ.Co2+: 0.1091
  AUC, modulator BJ.DPQ: 0.03115
  AUC, modulator BJ.Gd3+: 0.02448
  AUC, modulator BJ.LNAME: 0.02932
  AUC, modulator BJ.Lmin/NAD+: 0.3858
  AUC, modulator BJ.Lmin: 0.3462
  AUC, modulator BJ.NAD+: 0.04136
  AUC, modulator BJ.NMMA: 0.007806
  AUC, modulator BJ.Nec-1: 0.2379
  AUC, modulator BJ.Pepstatin: −0.0008093
  AUC, modulator BJ.TLCK: 0.2732
  AUC, modulator BJ.atoc: 0.3601
  AUC, modulator BJ.trolox: 0.3731
  AUC, modulator BJ.zVAD: 0.00586

## CC(C)[C@@H]1NC(=O)[C@H](C)OC(=O)[C@@H](C(C)C)NC(=O)[C@@H](C(C)C)OC(=O)[C@H](C(C)C)NC(=O)[C@H](C)OC(=O)[C@@H](C(C)C)NC(=O)[C@@H](C(C)C)OC(=O)[C@H](C(C)C)NC(=O)[C@H](C)OC(=O)[C@@H](C(C)C)NC(=O)[C@@H](C(C)C)OC1=O [Vatinomycin]
[2]
  AUC HT.ATA: 0.04039
  AUC HT.ActD: 0.0779
  AUC HT.BHA: −0.01263
  AUC HT.BHT: −0.05233
  AUC HT.BocD: 0.01496
  AUC HT.CHX: 0.1024
  AUC HT.Co2+: −0.06183
  AUC HT.CspA: −0.03789
  AUC HT.DPQ: 0.1702
  AUC HT.EGTA: −0.04483
  AUC HT.Gd3+: −0.004524
  AUC HT.LNAME: −0.03843
  AUC HT.Lmim: 0.1163
  AUC HT.NAD+: 0.07833
  AUC HT.NMMA: −0.002681
  AUC HT.Nec-1: 0.08394
  AUC HT.Pepstatin: 0.0197
  AUC HT.SP600125: −0.161
  AUC HT.TLCK: 0.02961
  AUC HT.U0126: 0.005482
  HT.atoc (AUC): 0.2292
  HT.bCarotene (AUC): −0.01526
  HT.deferox (AUC): 0.004145
  HT.digoxin (AUC): −0.1615
  HT.trolox (AUC): 0.04463
  HT.zVAD (AUC): −0.05753
  AUC, modulator HT.3MA: −0.1653
  AUC, modulator HT.ALLN: 0.04228
[3]
  AUC, modulator BJ.3MA: 0.03326
  AUC, modulator BJ.ALLN: 0.02063
  AUC, modulator BJ.Boc D: 0.02046
  AUC, modulator BJ.CHX: 0.3573
  AUC, modulator BJ.Co2+: 0.09595
  AUC, modulator BJ.DPQ: −0.02201
  AUC, modulator BJ.Gd3+: −0.0004394
  AUC, modulator BJ.LNAME: −0.01323
  AUC, modulator BJ.Lmin/NAD+: 0.1525
  AUC, modulator BJ.Lmin: −0.007847
  AUC, modulator BJ.NAD+: 0.1101
  AUC, modulator BJ.NMMA: −0.02634
  AUC, modulator BJ.Nec-1: 0.01734
  AUC, modulator BJ.Pepstatin: 0.04946
  AUC, modulator BJ.TLCK: 0.006602
  AUC, modulator BJ.atoc: 0.285
  AUC, modulator BJ.trolox: 0.06867
  AUC, modulator BJ.zVAD: 0.03769

## CCOc1ccccc1-n1c(C(C)N2CCN(C(=O)COc3ccc(Cl)cc3)CC2)nc2ccccc2c1=O (stereo not shown) [erastin, reference compound]
[2]
  AUC HT.ATA: −0.1315
  AUC HT.ActD: −0.1111
  AUC HT.BHA: 0.1748
  AUC HT.BHT: 0.1243
  AUC HT.BocD: −0.003341
  AUC HT.CHX: 0.05504
  AUC HT.Co2+: −0.2142
  AUC HT.CspA: 0.02449
  AUC HT.DPQ: 0.05672
  AUC HT.EGTA: 0.01444
  AUC HT.Gd3+: −0.01326
  AUC HT.LNAME: −0.008731
  AUC HT.Lmim: 0.2178
  AUC HT.NAD+: −0.02996
  AUC HT.NMMA: 0.006826
  AUC HT.Nec-1: −0.02551
  AUC HT.Pepstatin: −0.02573
  AUC HT.SP600125: −0.03688
  AUC HT.TLCK: 0.1167
  AUC HT.U0126: 0.1525
  HT.atoc (AUC): 0.2643
  HT.bCarotene (AUC): −0.0215
  HT.deferox (AUC): 0.3025
  HT.digoxin (AUC): −0.03393
  HT.trolox (AUC): 0.2077
  HT.zVAD (AUC): −0.07207
  AUC, modulator HT.3MA: −0.04578
  AUC, modulator HT.ALLN: −0.06856
[3]
  AUC, modulator BJ.3MA: 0.09348
  AUC, modulator BJ.ALLN: −0.05751
  AUC, modulator BJ.Boc D: −0.0006165
  AUC, modulator BJ.CHX: 0.09081
  AUC, modulator BJ.Co2+: −0.1704
  AUC, modulator BJ.DPQ: −0.005058
  AUC, modulator BJ.Gd3+: −0.0388
  AUC, modulator BJ.LNAME: −0.03971
  AUC, modulator BJ.Lmin/NAD+: 0.1538
  AUC, modulator BJ.Lmin: 0.1115
  AUC, modulator BJ.NAD+: −0.02334
  AUC, modulator BJ.NMMA: −0.05625
  AUC, modulator BJ.Nec-1: 0.1665
  AUC, modulator BJ.Pepstatin: 0.1892
  AUC, modulator BJ.TLCK: 0.0155
  AUC, modulator BJ.atoc: 0.3276
  AUC, modulator BJ.trolox: 0.2492
  AUC, modulator BJ.zVAD: −0.005301
